The subject of assay [1] is CCL17 secretion in peripheral human whole blood. Put plainly: Human Whole Blood (HWB) CCL17 TR-FRET Assay (IL-13 stimulated CCL17 secretion). It is filed as cell-based. The essentials:
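Heparin-anticoagulated human blood; cpd 11-pt 3-fold dilution, duplicate, 2 h 37 °C preinc; IL-13 10 ng/mL final, 48 h 37 °C; spin, serum CCL17 by TR-FRET ELISA, 16 h RT, 665/615 ratio; IC50.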
A general note: Time-resolved FRET reads energy transfer from a long-lived donor to a nearby acceptor.

The target of the next assay is T1, STAT6 (Homo sapiens, UniProt P42226).
T1 construct: stably transfected HaCaT keratinocyte cell line, which expresses NanoLuc luciferase reporter gene under the transcriptional control of the STAT6 responsive promoter; endogenous in cells; host or cells: HaCaT keratinocyte reporter cell line (stably transfected with a NanoLuc reporter)
T1 sequence (P42226 1-847): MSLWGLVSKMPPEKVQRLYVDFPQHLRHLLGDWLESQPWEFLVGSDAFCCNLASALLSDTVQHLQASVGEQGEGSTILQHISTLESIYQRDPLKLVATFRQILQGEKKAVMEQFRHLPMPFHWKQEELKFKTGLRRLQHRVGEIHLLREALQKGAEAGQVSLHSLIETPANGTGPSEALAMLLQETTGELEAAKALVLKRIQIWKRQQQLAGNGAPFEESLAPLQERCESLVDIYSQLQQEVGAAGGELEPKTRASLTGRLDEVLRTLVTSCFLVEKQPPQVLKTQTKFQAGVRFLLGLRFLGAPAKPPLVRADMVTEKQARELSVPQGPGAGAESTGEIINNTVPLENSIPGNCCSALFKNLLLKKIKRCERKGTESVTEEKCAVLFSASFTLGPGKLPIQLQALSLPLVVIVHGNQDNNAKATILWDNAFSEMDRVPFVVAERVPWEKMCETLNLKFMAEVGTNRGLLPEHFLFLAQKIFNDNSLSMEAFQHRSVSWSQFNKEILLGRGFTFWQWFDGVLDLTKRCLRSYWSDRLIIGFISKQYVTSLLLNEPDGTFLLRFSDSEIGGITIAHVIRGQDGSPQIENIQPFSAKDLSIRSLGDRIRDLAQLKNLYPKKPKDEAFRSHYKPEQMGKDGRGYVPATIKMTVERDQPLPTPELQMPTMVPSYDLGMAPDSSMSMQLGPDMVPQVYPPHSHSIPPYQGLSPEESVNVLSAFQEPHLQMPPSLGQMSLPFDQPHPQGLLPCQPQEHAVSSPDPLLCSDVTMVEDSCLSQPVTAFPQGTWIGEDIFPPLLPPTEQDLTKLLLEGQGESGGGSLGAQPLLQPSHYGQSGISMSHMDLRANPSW
In words: STAT6 Reporter Luciferase Assay (IL-13 stimulated HaCaT keratinocyte NanoLuc reporter cells). It is filed as cell-based. The conditions noted are these: read-out: Reporter EC50. The method in brief: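 IL-13 (0.12 nM, 4 h) stimulated STAT6 reporter activity in HaCaT cells after a 2 h compound pre-incubation; NanoLuc signal was measured.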

[2] abbreviates: Homo sapiens, 48 h, human whole blood, IL-13 stimulated.
Where [3] appears, read: IL-13 stimulated HaCaT STAT6 NanoLuc reporter cells.
[4] abbreviates: Homo sapiens, 48 h, human whole blood, 10 ng/mL IL13, 48 hours.
Setting [5] is: Homo sapiens, 48 h, inhibition of CCL17 secretion in human whole blood, 10 ng/mL IL13, 48 hours.
Setting [6] is: STAT6 NanoLuc luciferase reporter, IL-13 stimulated HaCaT keratinocyte cells.

pEC50, pIC50: −log10 of the molar value. Like-named read-outs stand apart in the source and are kept apart here.

Turning to `CCn1nc(C(=O)NCc2ccc(NC(=O)N(C)C)nc2)c2c1[C@@H](C)CN(c1ncc(C(=O)N(C)C)cn1)C2` [Example 324, (S)-5-(5-(dimethylcarbamoyl)pyrimidin-2-yl)-N-((6-(3,3-dimethylureido)pyridin-3-yl)methyl)-1-ethyl-7-methyl-4,5,6,7-tetrahydro-1H-pyrazolo[4,3-c]pyridine-3-carboxamide], in assay [1] (setting [2]), the pIC50 is 7.74. In addition, the pEC50 at STAT6 (setting [3]) is 8.30.

Regarding `CC(C)n1nc(C(=O)NCc2ccc(NC(N)=O)cc2)c2c1[C@@H](C)CN(c1ncc(-c3nccn3C)cn1)C2` [Example 562, (S)-1-isopropyl-7-methyl-5-(5-(1-methyl-1H-imidazol-2-yl)pyrimidin-2-yl)-N-(4-ureidobenzyl)-4,5,6,7-tetrahydro-1H-pyrazolo[4,3-c]pyridine-3-carboxamide], in assay [1] (setting [4]), the pIC50 is 8.10. The pEC50 at STAT6 (setting [3]) was 8.52.

`CC(C)n1nc(C(=O)NCc2ccc(NC(=O)N(C)C)cc2)c2c1CCN(c1ccc(C(=O)N(C)C)cn1)[C@@H]2C` (single isomer, unassigned) [Example 506] had a pIC50 in assay [1] (setting [2]) of 7.85. Moreover, the pEC50 on STAT6 (setting [3]) is 8.70.

In assay [1] (setting [5]), `CC(n1nc(C(=O)NCc2ccc(NC(=O)N(C)C)cc2)c2c1CCN(c1ccc(C(=O)N(C)C)cn1)C2)C(F)(F)F` (racemic) [Example 101, rac-(R)-5-(5-(dimethylcarbamoyl)pyridin-2-yl)-N-(4-(3,3-dimethylureido)benzyl)-1-(1,1,1-trifluoropropan-2-yl)-4,5,6,7-tetrahydro-1H-pyrazolo[4,3-c]pyridine-3-carboxamide] had a pIC50 of 7.28. The pEC50 at STAT6 (setting [6]) is 8.30.

In the case of `CC(C)n1nc(C(=O)Nc2cccc(C(N)=O)c2F)c2c1[C@@H](C)CN(c1ccc(C(=O)N(C)C)cn1)C2` [Example 458, (S)-N-(3-carbamoyl-2-fluorophenyl)-5-(5-(dimethylcarbamoyl)pyridin-2-yl)-1-isopropyl-7-methyl-4,5,6,7-tetrahydro-1H-pyrazolo[4,3-c]pyridine-3-carboxamide], the pIC50 in assay [1] (setting [2]) is < 5.12. In addition, the pEC50 on STAT6 (setting [3]) was 6.76.

For `CNC(=O)c1ccc(CNC(=O)c2nn(C(C)C)c3c2CN(c2ncc(C(=O)N4Cc5cccnc5C4)cn2)C[C@@H]3C)cc1` [Example 496, (S)-5-(5-(6,7-dihydro-5H-pyrrolo[3,4-b]pyridine-6-carbonyl)pyrimidin-2-yl)-1-isopropyl-7-methyl-N-(4-(methylcarbamoyl)benzyl)-4,5,6,7-tetrahydro-1H-pyrazolo[4,3-c]pyridine-3-carboxamide], in assay [1] (setting [2]), the pIC50 was 7.80. Besides, the pEC50 on STAT6 (setting [3]) is 8.40.

In turn, `CC(C)n1nc(C(=O)NCc2ccc(NC(=O)N(C)C)cc2)c2c1CCN(c1ccc(N3C(=O)OCC3CO)cn1)C2` (stereo not shown) [Example 110, N-(4-(3,3-dimethylureido)benzyl)-5-(5-(4-(hydroxymethyl)-2-oxooxazolidin-3-yl)pyridin-2-yl)-1-isopropyl-4,5,6,7-tetrahydro-1H-pyrazolo[4,3-c]pyridine-3-carboxamide] showed a pIC50 in assay [1] (setting [5]) of 5.68. Besides, the pEC50 on STAT6 (setting [6]) was 6.28.

Take `CC(C)n1nc(C(=O)NCc2ccc(NC(=O)N(C)C)cc2)c2c1CCN(c1ccc(C(=O)NCc3ccc(NC(=O)N(C)C)cc3)cn1)C2` [Example 39, N-(4-(3,3-Dimethylureido)benzyl)-5-(5-((4-(3,3-dimethylureido)benzyl)carbamoyl)pyridin-2-yl)-1-isopropyl-4,5,6,7-tetrahydro-1H-pyrazolo[4,3-c]pyridine-3-carboxamide]: in assay [1] (setting [5]), the pIC50 was < 4.52. Moreover, the pEC50 on STAT6 (setting [6]) is 6.13.

Take `CNC(=O)c1ccc(CNC(=O)c2nn(C)c3c2CN(c2ccc(C(=O)N(C)C)cn2)CC3)cc1` [Example 15, 5-(5-(dimethylcarbamoyl)pyridin-2-yl)-1-methyl-N-(4-(methylcarbamoyl)benzyl)-4,5,6,7-tetrahydro-1H-pyrazolo[4,3-c]pyridine-3-carboxamide]: in assay [1] (setting [5]), the pIC50 was 5.93. For the same compound, at STAT6 (setting [6]), the pEC50 was 6.80.

As for `CCn1nc(C(=O)NCc2ccc(NC(=O)N(C)C)cc2)c2c1C(C(F)(F)F)CN(c1ncc(C(=O)N(C)C)cn1)C2` (single isomer, unassigned) [Example 464, rel-(R or S)-5-(5-(dimethylcarbamoyl)pyrimidin-2-yl)-N-(4-(3,3-dimethylureido)benzyl)-1-ethyl-7-(trifluoromethyl)-4,5,6,7-tetrahydro-1H-pyrazolo[4,3-c]pyridine-3-carboxamide], the pIC50 in assay [1] (human whole blood, IL-13 stimulated, 48 hours) was 8.70. Further, the pEC50 at STAT6 (setting [3]) was 9.70.

As to `CCc1nc(C(=O)NCc2ccc(NC(=O)N(C)C)cc2)c2n1C(C)CN(c1ccc(C(=O)N(C)C)cn1)C2` (racemic) [Example 205, rac-(R)-7-(5-(dimethylcarbamoyl)pyridin-2-yl)-N-(4-(3,3-dimethylureido)benzyl)-3-ethyl-5-methyl-5,6,7,8-tetrahydroimidazo[1,5-a]pyrazine-1-carboxamide], in assay [1] (setting [2]), the pIC50 was 7.72. Further, on STAT6 (setting [3]), the pEC50 is 8.30.

In the case of `CCC1CN(c2ccc(C(=O)N(C)C)cn2)Cc2c(C(=O)NCc3ccc(NC(=O)N(C)C)cc3)nc(C)n21` (single isomer, unassigned) [Example 131, rel-(R or S)-7-(5-(dimethylcarbamoyl)pyridin-2-yl)-N-(4-(3,3-dimethylureido)benzyl)-5-ethyl-3-methyl-5,6,7,8-tetrahydroimidazo[1,5-a]pyrazine-1-carboxamide], in assay [1] (setting [5]), the pIC50 was 6.59. In addition, the pEC50 at STAT6 (setting [6]) is 6.99.

In assay [1] (setting [5]), `CCCn1nc(C(=O)NCc2ccc(NC(=O)N(C)C)cc2)c2c1CCN(c1ccc(C(=O)N(C)C)cn1)C2` [Example 74, 5-(5-(dimethylcarbamoyl)pyridin-2-yl)-N-(4-(3,3-dimethylureido)benzyl)-1-propyl-4,5,6,7-tetrahydro-1H-pyrazolo[4,3-c]pyridine-3-carboxamide] showed a pIC50 of 6.92. Further, the pEC50 on STAT6 (setting [6]) is 7.96.

In the case of `CC(C)n1nc(C(=O)NCc2ccc(NC(=O)N(C)[C@H]3CCOC3)cc2)c2c1CCN(c1ccc(C(=O)N(C)C)cn1)C2` [Example 187, (S)-5-(5-(dimethylcarbamoyl)pyridin-2-yl)-1-isopropyl-N-(4-(3-methyl-3-(tetrahydrofuran-3-yl)ureido)benzyl)-4,5,6,7-tetrahydro-1H-pyrazolo[4,3-c]pyridine-3-carboxamide], in assay [1] (setting [2]), the pIC50 is 7.39. Also, at STAT6 (setting [3]), the negative-log EC50 (pEC50) is 7.82.

Turning to `CC1Cc2c(c(C(=O)NCc3ccc(NC(=O)N(C)C)cc3)nn2C)CN1c1ccc(C(=O)N(C)C)cn1` (racemic) [Example 49, rac-(R)-5-(5-(dimethylcarbamoyl)pyridin-2-yl)-N-(4-(3,3-dimethylureido)benzyl)-1,6-dimethyl-4,5,6,7-tetrahydro-1H-pyrazolo[4,3-c]pyridine-3-carboxamide], in assay [1] (setting [5]), the pIC50 was 7.41. In addition, at STAT6 (setting [6]), the pEC50 was 8.05.

As to `CC(C)n1nc(C(=O)NCc2ccc(NC(=O)N3CCN(C)CC3)cc2)c2c1[C@@H](C)CN(c1ccc(-c3ncnn3C3CC3)cn1)C2` [Example 649, (S)-5-(5-(1-cyclopropyl-1H-1,2,4-triazol-5-yl)pyridin-2-yl)-1-isopropyl-7-methyl-N-(4-(4-methylpiperazine-1-carboxamido)benzyl)-4,5,6,7-tetrahydro-1H-pyrazolo[4,3-c]pyridine-3-carboxamide], the pIC50 in assay [1] (setting [4]) was 7.62. Moreover, the pEC50 on STAT6 (setting [3]) was 9.00.

`CN(C)C(=O)Nc1ccc(CNC(=O)c2nn(C3(C)CC3)c3c2CN(c2ccc(C(=O)N(C)C)cn2)CC3)cc1` [Example 20, 5-(5-(dimethylcarbamoyl)pyridin-2-yl)-N-(4-(3,3-dimethylureido)benzyl)-1-(1-methylcyclopropyl)-4,5,6,7-tetrahydro-1H-pyrazolo[4,3-c]pyridine-3-carboxamide]: the pIC50 in assay [1] (setting [5]) is 7.14. Besides, at STAT6 (setting [6]), the pEC50 is 8.22.

Usually pIC50 stands for the IC50 on a negative log10 scale, so that one unit is a factor of ten. Read a low pIC50 as a high IC50. As a reminder, the pEC50 is the EC50 on a negative log10 scale, so that one unit is a factor of ten.

These data come from patent publication US20250320213A1, “Nitrogen-Containing Heterocyclic Compounds” (Pfizer Inc., priority 2024, published 2025).
